Assay results taken from PubChem BioAssay AID1920066 (Derbyshire Lab, Chemistry Department, Duke University, 2024).

Legend:
[1] = competitive binding to P. falciparum Hsp90 – cell lysate, FLECS, GFP-tagged PfHsp90, E. coli lysate, confirmation (AID 1920066); details: liver stage Plasmodium parasite inhibition
[2] = system: Heat shock protein 90 (Plasmodium falciparum), GFP-tagged; assay: as above; details: E. coli lysate PfHsp90-GFP ATP-resin elution, fluorescence; at 500 µM; stronger effect = higher value

EC50 [1] [µM] | relative binding (F/Fo) [2] | Structure (SMILES)
1.5 | 4.9 | CCOC(=O)NCc1ccc(-n2c(-c3cc(C(C)C)c(O)cc3O)n[nH]c2=S)cc1
> 30 | 2.15 | Cc1ccc(C(C)C)c(OCC(=O)Nc2cccc3cnccc23)c1
> 30 | 2.06 | CN(CC(=O)N1CCCC1)c1ncnc2cc(Cl)ccc12
> 30 | 2.54 | NC(=O)c1ccc(NC(=O)CN2CSCC2=O)cc1
0.24 | 3.44 | CC[C@@H](C)Nc1cc(C(=O)NC2CC3CCC(C2)N3c2ccc(C(=O)C3CC3)cn2)c(C)cc1C(N)=O (some centres undefined)
> 30 | 2.59 | CS(=O)(=O)c1cccc(C(=O)Nc2nc3ccccc3nc2N2CCCC2)c1
> 10 | 2.06 | Cn1cc(S(=O)(=O)N2CCN(C(=O)c3ccc(F)cc3)CC2)cc1C(N)=O
